The source of these data is BindingDB's records for doi:10.1016/j.bmcl.2006.01.055 (Bristol-Myers Squibb Pharmaceutical Research Institute, 2006).

The assay in a line: Inhibition of beta-amyloid peptide production in CHO N9 cell line.
`CCC[C@H](C(N)=O)[C@@H](CC(C)C)C(=O)N[C@H]1CCCCN(Cc2cccc(Nc3ccccc3Cl)c2)C1=O`: the IC50 (as a rule, the point on the concentration scale where inhibition reaches its midpoint) was found to be 29 nM.
Consider `CCC[C@H](C(N)=O)[C@@H](CC(C)C)C(=O)N[C@H]1CCCCN(Cc2cccc(Nc3cccc(OC)c3)c2)C1=O`, for which half-maximal inhibition (IC50) was put at 54 nM.
Take `CCC[C@H](C(N)=O)[C@@H](CC(C)C)C(=O)N[C@H]1CCCCN(Cc2cccc(Nc3ccc(C(F)(F)F)cc3)c2)C1=O`: the IC50 is 30 nM.
Regarding `CCC[C@H](C(=O)NC1CCCC1)[C@@H](CC(C)C)C(=O)N[C@H]1CCCCN(Cc2cccc(Oc3ccccc3)c2)C1=O`, the IC50 is 6000 nM. Against the preceding compound, the IC50 is about 200-fold higher.
In turn, `CCC[C@H](C(N)=O)[C@@H](CC(C)C)C(=O)N[C@H]1CCCCN(Cc2cccc(Nc3ccc(F)c(Cl)c3)c2)C1=O` gave an IC50 of 17 nM. Against the preceding compound, the IC50 is about 350-fold lower.
Turning to `CCC[C@H](C(=O)NCc1ccco1)[C@@H](CC(C)C)C(=O)N[C@H]1CCCCN(Cc2cccc(Oc3ccccc3)c2)C1=O`, the IC50 stood at 3000 nM.
In the case of `CCCCNC(=O)[C@@H](CCC)[C@@H](CC(C)C)C(=O)N[C@H]1CCCCN(Cc2cccc(Oc3ccccc3)c2)C1=O`, the IC50 amounted to 5000 nM. Against the preceding compound, the IC50 is about 1.7-fold higher.
Then `CCC[C@H](C(N)=O)[C@@H](CC(C)C)C(=O)N[C@H]1CCCCN(Cc2cccc(Nc3ccc(OC)cc3)c2)C1=O`, with 160 nM; and `CCC[C@H](C(N)=O)[C@@H](CC(C)C)C(=O)N[C@H]1CCCCN(Cc2cccc(Nc3ccc4c(c3)OCO4)c2)C1=O`, with 152 nM; and `CCC[C@H](C(=O)NO)[C@@H](CC(C)C)C(=O)N[C@H]1CCCCN(Cc2ccccc2)C1=O`, with 6800 nM.
For `CCC[C@H](C(=O)NC/C=C/Cc1ccccc1)[C@@H](CC(C)C)C(=O)N[C@H]1CCCCN(Cc2cccc(Oc3ccccc3)c2)C1=O`, the IC50 stood at 3000 nM. Against the preceding compound, the IC50 is about 2.3-fold lower.
`CCC[C@H](C(N)=O)[C@@H](CC(C)C)C(=O)N[C@H]1CCCCN(Cc2cccc(Nc3cccc(C)c3)c2)C1=O` had an IC50 of 17 nM.
As for `CCC[C@H](C(N)=O)[C@@H](CC(C)C)C(=O)N[C@H]1CCCCN(Cc2cccc(Nc3ccccc3)c2)C1=O` [(2R,3S)-N1-((S)-1-(3-(phenylamino)benzyl)-2-oxoazepan-3-yl)-2-isobutyl-3-propylsuccinamide], the IC50 was 15 nM. This IC50 and that of the compound before are within 1.5-fold of each other.
`CCC[C@H](C(=O)NO)[C@@H](CC(C)C)C(=O)N[C@H]1CCCCN(Cc2cccc(Oc3ccccc3)c2)C1=O` [(2S,3R)-N1-hydroxy-3-isobutyl-N4-((S)-2-oxo-1-(3-phenoxybenzyl)azepan-3-yl)-2-propylsuccinamide] displayed an IC50 of 200 nM. This IC50 lies about 13-fold higher than the previous one.
